Reference: US6069232A, “Polyfluoroalkyl tryptophan tripeptide thrombin inhibitors” (Hoechst Marion Roussel, Inc., priority 1996, dated 2000)

Experiments:
Thrombin = target: T1, Thrombin (Homo sapiens, UniProt P00734); assay: Thrombin inhibition, spectrophotometric assay (p-nitroaniline liberation); format: biochemical; details: thrombin from human plasma; substrate Sarcosyl-Proline-Arginine-p-nitroanilide; 0.1M Tris pH 7.4; 30° C.
T1 construct: Thrombin is obtained from human plasma; purchased Sigma Chemical Co; host or cells: human plasma
Experimental: Chem., 329, p. 278 (1962), in which the liberation of p-nitroaniline is determined by measuring the increase in absorbance at 405 nm (ε=10800M^-1 cm^-1). Thrombin is obtained from human plasma, available from Sigma Chemical Co. wherein the activity is expressed in NIH units. One vial contains 290 units (specific activity=3000 units per mg of protein) as a lyophilized powder which is reconstituted with 1 mL of water. The substrate is the chromophoric peptide, Sarcosyl-Proline-Arginine-p-nitroanilide (Km =0.9 mM), the buffer is 0.1M Tris, pH 7.4 (final volume 1 mL) and the assay is carried out at a temperature of about 30° C. with 0.029 NIH units of enzyme required per assay. Kinetic characterization of immediate inhibitors is by means of the Dixon plot, whereas the characterization of slow- and/or tight-binding inhibitors uses data analysis techniques reviewed by Williams and Morrison. Kinetic characterization of time dependent inhibitors is by means of a Kitz & Wilson plot, Kitz R. and Wilson I. B., J. Biol. Chem., 237, 3245-3249 (1962).

Trypsin = target: T2, Trypsin (Sus scrofa, UniProt P00761); assay: Trypsin inhibition, spectrophotometric assay (p-nitroaniline liberation); format: biochemical; details: trypsin from porcine pancreas; substrate Benzoyl-Arginine-p-nitroanilide; 0.05M Tris, 0.05M CaCl2, pH 7.8; 30° C.
T2 construct: Trypsin is obtained from porcine pancreas; purchased Sigma Chemical Co; host or cells: porcine pancreas
Experimental: Chem., 329, p. 278 (1962), immediately described above. Trypsin is obtained from porcine pancreas, available from Sigma Chemical Co. wherein the activity is expressed in Sigma units. The specific activity of the trypsin source is 15900 Sigma units per mg of protein where one unit is defined as the amount of enzyme that gives an increase in absorbance at 253 nm of 0.001 per min as the result of the hydrolysis of Benzoyl-Arginine-Ethylester, at pH 7.6 and 25° C. The substrate is the peptide Benzoyl-Arginine-p-nitroanilide (KM =[…]), the buffer is 0.05M Tris, 0.05M CaCl2, pH 7.8 (final volume 1 mL) and the assay is carried out at a temperature of 30° C. with 8 Sigma units of enzyme required per assay. Kinetic characterization of immediate inhibitors is by means of the Dixon plot, whereas the characterization of slow- and/or tight-binding inhibitors uses data analysis techniques reviewed by Williams and Morrison. Kinetic characterization of time dependent inhibitors is by means of a Kitz & Wilson plot.

clotting time (aPTT) = assay: Coagulation assay: activated partial thromboplastin time (aPTT), concentration doubling the clotting time; design: species or system rat; details: calculated by simple linear regression
Experimental: Male Sprague-Dawley rats (200-450 gm) purchased from Harlan Sprague Dawley, Inc., (Indianapolis, Ind. 46229) were used in these studies.
Activated partial thromboplastin time (aPTT) determinations are carried out using the reagents and methods of Dade Diagnostics, Inc. (Aguada, Puerto Rico 00602). All clotting times were measured semiautomatically using a MLA-Electra 750, MLA, Inc. (Pleasantville, N.Y. 10570). The concentration required for doubling the clotting time (ID2) was calculated using simple linear regression.

aPTT in rat plasma = assay: In vivo measurement of aPTT in rat plasma after injection; details: n = 2
Source text: Activated partial thromboplastin time (aPTT) measurements were made in rat plasma at various times after injecting the animals with TFA·HNMe-D-Phe-L-Pro-D,L-Trp--CF2 CF3. Male Sprague-Dawley rats (200-450 g) purchased from Harlan Sprague Dawley, Inc., (Indianapolis, Ind. 46229) are used in these studies. […]

T2 sequence (P00761 9-231): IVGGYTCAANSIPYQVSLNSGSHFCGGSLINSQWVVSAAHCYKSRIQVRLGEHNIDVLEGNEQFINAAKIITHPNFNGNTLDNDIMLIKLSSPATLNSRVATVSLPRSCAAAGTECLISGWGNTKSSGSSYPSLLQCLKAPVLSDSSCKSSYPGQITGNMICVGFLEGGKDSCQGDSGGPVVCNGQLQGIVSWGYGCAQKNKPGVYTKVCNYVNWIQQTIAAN

Which results are given for `CN[C@H](Cc1ccccc1)C(=O)N1CCC[C@H]1C(=O)NC(Cc1c[nH]c2ccccc12)C(=O)C(F)(F)C(F)(F)F.O=C(O)C(F)(F)F` (stereo partly drawn) [TFA.HNMe-D-Phe-L-Pro-D,L-Trp-CF2 CF3, L-Prolinamide, N-methyl-D-phenylalanyl-N-[3,3,4,4,4-pentafluoro-1-(1H-indol-3-ylmethyl)-2-oxobutyl]-, mono(trifluoroacetate)]?
Ki (Thrombin): 0.45 µM; Ki (Trypsin): ~100 µM; ID2 (concentration required for doubling the clotting time) (clotting time (aPTT)): 44.9 µM; aPTT (aPTT in rat plasma; 5 mg/kg i.v., 0 min. after dosing): 21.2 s; aPTT (aPTT in rat plasma; 5 mg/kg i.v., 5 min. after dosing): 19.0 s; aPTT (aPTT in rat plasma; 5 mg/kg i.v., 15 min. after dosing): 22.7 s; aPTT (aPTT in rat plasma; 5 mg/kg i.v., 30 min. after dosing): 18.6 s; aPTT (aPTT in rat plasma; 5 mg/kg i.v., 60 min. after dosing): 17.6 s; aPTT (aPTT in rat plasma; 10 mg/kg i.v., 0 min. after dosing): 18.8 s; aPTT (aPTT in rat plasma; 10 mg/kg i.v., 5 min. after dosing): 17.4 s; aPTT (aPTT in rat plasma; 10 mg/kg i.v., 15 min. after dosing): 18.0 s; aPTT (aPTT in rat plasma; 10 mg/kg i.v., 30 min. after dosing): 15.7 s; aPTT (aPTT in rat plasma; 10 mg/kg i.v., 60 min. after dosing): 12.6 s; aPTT (aPTT in rat plasma; 30 mg/kg i.p., 0 min. after dosing): 19.2 s; aPTT (aPTT in rat plasma; 30 mg/kg i.p., 5 min. after dosing): 20.8 s; aPTT (aPTT in rat plasma; 30 mg/kg i.p., 15 min. after dosing): 19.2 s; aPTT (aPTT in rat plasma; 30 mg/kg i.p., 30 min. after dosing): 19.4 s; aPTT (aPTT in rat plasma; 30 mg/kg i.p., 60 min. after dosing): 18.7 s
